Experimental data: PMC7516806, “Hybrid Antimicrobial Peptide Targeting Staphylococcus aureus and Displaying Anti-infective Activity in a Murine Model” (Frontiers in Microbiology, 2020)
Positions of bridges follow the written chain, without caps; N, C: chain ends. Residues, ends and D or L forms follow the SMILES beside them. No end group written: not given here.

Experiments:
E. coli UB1005 = assay: MIC, modified microtiter dilution; format: cell-based, Escherichia coli; conditions: MHB, 2–7 × 10^5 CFU/ml, 37°C, 24 h, no turbidity, at least three independent repeats
Description: (§1) The experiment was repeated at least three times independently.

E. coli 25922 = assay: MIC, modified microtiter dilution; format: cell-based, Escherichia coli; conditions: MHB, 2–7 × 10^5 CFU/ml, 37°C, 24 h, lowest concentration with no turbidity, at least three independent repeats
Description: as §1

P. aeruginosa 27853 = assay: MIC, modified microtiter dilution; format: cell-based, Pseudomonas aeruginosa; conditions: MHB, 2–7 × 10^5 CFU/ml, 37°C, 24 h, no turbidity, at least three independent repeats
Description: as §1

E. coli K88 = conditions: MHB, 2–7 × 10^5 CFU/ml, 37°C, 24 h, no turbidity, at least three independent repeats
Description: (§2) The bacterial strains Escherichia coli (E. coli) ATCC 25922, E. coli K88, E. coli K99, Pseudomonas aeruginosa (P. aeruginosa) ATCC 27853, Escherichia coli (E. coli) UB1005, Salmonella typhimurium 14028, Salmonella pullorum (S. pullorum) C7913, S. typhimurium C7731, S. aureus ATCC 29213, MRSA ATCC 43300, and S. aureus ATCC 25923 were obtained from the College of Veterinary Medicine, Northeast Agricultural University, China. Lactobacillus plantarum (L. plantarum) 8014, Lactobacillus rhamnosus (L. rhamnosus) 7469, L. rhamnosus 1.0911, L. rhamnosus 1.0936, and L. rhamnosus 1.0385 were obtained from the Key Laboratory of Food College, Northeast Agricultural University, China.
(§3) As in a previous study, the antimicrobial activities of the AMPs were investigated using a modified standard microtiter dilution method ([Dong et al., 2014]). The peptides were serially diluted with a solution containing 0.01% acetic acid and 0.2% bovine serum albumin (BSA, Sigma) in 96-well plates. The bacteria grew to the mid-log phase and then were dissolved in MHB at concentration of 2–7 × 10^5 CFU/ml. The peptides and bacterial solution were mixed in equal volume in a 37°C incubator for 24 h. […] Mueller-Hinton broth with microorganisms was used as the positive control, and the pure broth was used as the negative control. The experiment was repeated at least three times independently.

E. coli K99 = conditions: MHB, 2–7 × 10^5 CFU/ml, 37°C, 24 h, no turbidity, at least three independent repeats
Description: as §2, §3

S. aureus 29213 [1] = assay: MIC in the presence of physiological salts; format: cell-based, Staphylococcus aureus; conditions: three independent repeats; for MIC against S. aureus 29213, FeCl3: 4 μM FeCl3; for MIC against S. aureus 29213, FeCl3 / MIC against S. aureus 29213, NH4Cl / MIC against S. aureus 29213, ZnCl2 / MIC against S. aureus 29213, MgCl2 / MIC against S. aureus 29213, CaCl2 / MIC against S. aureus 29213, KCl / MIC against S. aureus 29213, NaCl: unit not given in Table 4; for MIC against S. aureus 29213, NH4Cl: 6 μM NH4Cl; for MIC against S. aureus 29213, ZnCl2: 8 μM ZnCl2; for MIC against S. aureus 29213, MgCl2: 1 mM MgCl2; for MIC against S. aureus 29213, CaCl2: 2 mM CaCl2; for MIC against S. aureus 29213, KCl: 4.5 mM KCl; for MIC against S. aureus 29213, NaCl: 150 mM NaCl
Protocol: as §1
The MIC of peptides was determined in the presence of salts at physiological concentrations (150 mM NaCl, 4.5 mM KCl, 6 μM NH4Cl, 8 μM ZnCl2, 1 mM MgCl2, 2 mM CaCl2, and 4 μM FeCl3) as described previously ([Dong et al., 2014]). All experiments were performed three times independently.

S. typhimurium 7731 = assay: MIC, modified microtiter dilution; format: cell-based, Salmonella typhimurium; conditions: MHB, 2–7 × 10^5 CFU/ml, 37°C, 24 h, no turbidity, at least three independent repeats
Description: as §1

S. typhimurium 14028 = assay: MIC, modified microtiter dilution; format: cell-based, Salmonella typhimurium; conditions: MHB, 2–7 × 10^5 CFU/ml, 37°C, 24 h, no turbidity, at least three independent repeats
Description: as §1

MRSA 43300 = format: cell-based, Staphylococcus aureus; conditions: MHB, 2–7 × 10^5 CFU/ml, 37°C, 24 h, no turbidity, at least three independent repeats
Description: as §1

S. aureus 25923 = assay: MIC, modified microtiter dilution; format: cell-based, Staphylococcus aureus; conditions: MHB, 2–7 × 10^5 CFU/ml, 37°C, 24 h, no turbidity, at least three independent repeats
Description: as §1

S. aureus 29213 [2] = assay: MIC, modified microtiter dilution; format: cell-based, Staphylococcus aureus; conditions: MHB, 2–7 × 10^5 CFU/ml, 37°C, 24 h, no turbidity, at least three independent repeats
Description: as §1

L. rhamnosus 1.0936 = assay: MIC, modified microtiter dilution; format: cell-based, Lactobacillus rhamnosus; conditions: 2–7 × 10^5 CFU/ml, 37°C, 24 h, no turbidity, at least three independent repeats
Description: as §1

L. rhamnosus 7469 = assay: MIC, modified microtiter dilution; format: cell-based, Lactobacillus rhamnosus; conditions: 2–7 × 10^5 CFU/ml, 37°C, 24 h, no turbidity, at least three independent repeats
Description: as §1

L. rhamnosus 1.0911 = assay: MIC, modified microtiter dilution; format: cell-based, Lactobacillus rhamnosus; conditions: 2–7 × 10^5 CFU/ml, 37°C, 24 h, no turbidity, at least three independent repeats
Description: as §1

L. rhamnosus 1.0385 = assay: MIC, modified microtiter dilution; format: cell-based, Lactobacillus rhamnosus; conditions: 2–7 × 10^5 CFU/ml, 37°C, 24 h, no turbidity, at least three independent repeats
Description: as §1

S. pullorum 7913 = assay: MIC, modified microtiter dilution; format: cell-based, Salmonella pullorum; conditions: MHB, 2–7 × 10^5 CFU/ml, 37°C, 24 h, no turbidity, at least three independent repeats
Description: as §1

L. plantarum 8014 = assay: MIC, modified microtiter dilution; format: cell-based, Lactobacillus plantarum; conditions: 2–7 × 10^5 CFU/ml, 37°C, 24 h, no turbidity, at least three independent repeats
Description: as §1

RAW 264.7 cells = assay: Cytotoxicity, MTT dye reduction assay; format: cell-based, murine; conditions: highest concentration of 128 μM, 4 h, three independent repeats
Protocol: The cytotoxicity of peptides was determined by healthy human erythrocytes and the murine macrophage cell line RAW 264.7 via a hemolysis assay and MTT dye reduction assay, respectively ([Wang et al., 2018]). In the hemolysis assay, fresh hRBCs from healthy people were centrifuged for 5 min at 1,000 × g and then washed three times with PBS (pH = 7.2). The 100 μL erythrocyte suspension and peptides were incubated for 1.5 h in an incubator at 37°C. The 96-well plates were centrifuged at 1,000 × g for 5 min, and the supernatants were carefully aspirated. The absorbance at 570 nm indicated the leakage of hemoglobin. The hRBCs in the PBS sample was used as the negative control, and 0.1% Triton X-100 addition served as the positive control. In the MTT dye reduction assay, 1.0–2.0 × 10^5 cells were plated in 96-well plates and then treated with various concentrations of peptides for 4 h at 37°C in a 5% CO2 incubator. Subsequently, 50 μL of MTT was added to the plated cells at a final concentration of 0.5 mg/mL and incubated for 4 h. Then, the cells were centrifuged at 1000 × g for 5 min, and the supernatants were discarded. Formazan crystals were dissolved in 150 μL of DMSO, and the OD570 nm was measured using a microplate reader (TECAN GENios F129004; TECAN, Austria). The experiment was repeated three times independently.

[3] = system: panel of bacterial species; assay: MIC against a panel of bacterial species (summary statements); format: cell-based; conditions: all tested bacteria, up to the highest concentration measured
Description: as §1

Molecule | MIC E. coli UB1005 (E. coli UB1005) | MIC E. coli 25922 (E. coli 25922) | MIC P. aeruginosa 27853 (P. aeruginosa 27853) | MIC E. coli K88 (E. coli K88) | MIC E. coli K99 (E. coli K99) | MIC against S. aureus 29213, FeCl3 (S. aureus 29213 [1]) | MIC against S. aureus 29213, NH4Cl (S. aureus 29213 [1]) | MIC against S. aureus 29213, ZnCl2 (S. aureus 29213 [1]) | MIC against S. aureus 29213, MgCl2 (S. aureus 29213 [1]) | MIC against S. aureus 29213, CaCl2 (S. aureus 29213 [1]) | MIC against S. aureus 29213, KCl (S. aureus 29213 [1]) | MIC against S. aureus 29213, NaCl (S. aureus 29213 [1]) | MIC S. typhimurium 7731 (S. typhimurium 7731) | MIC S. typhimurium 14028 (S. typhimurium 14028) | MIC MRSA 43300 (MRSA 43300) | MIC S. aureus 25923 (S. aureus 25923) | MIC S. aureus 29213 (S. aureus 29213 [2]) | MIC L. rhamnosus 1.0936 (L. rhamnosus 1.0936) | MIC L. rhamnosus 7469 (L. rhamnosus 7469) | MIC L. rhamnosus 1.0911 (L. rhamnosus 1.0911) | also measured
RWWWAA-NH2 [Peptide S8] | >64 µM | >64 µM | >64 µM | >64 µM | >64 µM | >64 µM | >64 µM | 64 µM | >64 µM | >64 µM | >64 µM | >64 µM | >64 µM | >64 µM | >64 µM | >64 µM | >64 µM | >64 µM | >64 µM | >64 µM | MIC L. rhamnosus 1.0385 (L. rhamnosus 1.0385): >64 µM; MIC S. pullorum 7913 (S. pullorum 7913): >64 µM; MIC L. plantarum 8014 (L. plantarum 8014): >64 µM; RAW 264.7 cell survival rate (RAW 264.7 cells): 85%
C[C@@H]1NC(=O)[C@@H](N)CSSC[C@@H](C(N)=O)NC(=O)[C@H](Cc2ccccc2)NC(=O)[C@H](Cc2ccc(O)cc2)NC(=O)[C@H](CO)NC1=O [Peptide S5] (H-CASYFC-NH2; disulfide 1-6; N-terminus and C-terminus assumed) |  |  |  |  |  |  |  |  |  |  |  |  |  |  |  |  |  |  |  |  | antimicrobial activity against the tested microorganisms [3]: failed to show antimicrobial activity; MIC against S. aureus 29213 (column MIC, no added salt) (S. aureus 29213 [1]; control without added salt, unit not printed in Table 4, μM as in Table 3): >64 µM
CC(C)C[C@H](NC(=O)[C@H](CC(C)C)NC(=O)[C@H](Cc1c[nH]c2ccccc12)NC(=O)[C@H](Cc1c[nH]c2ccccc12)NC(=O)[C@H](Cc1c[nH]c2ccccc12)NC(=O)[C@H](CCCNC(=N)N)NC(=O)[C@H](CS)NC(=O)[C@H](Cc1ccccc1)NC(=O)[C@H](Cc1ccc(O)cc1)NC(=O)[C@H](CO)NC(=O)[C@H](C)NC(=O)[C@@H](N)CS)C(N)=O [Peptide S4] (H-CASYFCRWWWLL-NH2; N-terminus assumed) | >64 µM | >64 µM | >64 µM | >64 µM | >64 µM | >64 µM | >64 µM | >64 µM | >64 µM | >64 µM | >64 µM | >64 µM | >64 µM | >64 µM | >64 µM | >64 µM | >64 µM | >64 µM | >64 µM | >64 µM | antimicrobial activity against the tested microorganisms [3]: failed to show antimicrobial activity; MIC L. rhamnosus 1.0385 (L. rhamnosus 1.0385): >64 µM; MIC S. pullorum 7913 (S. pullorum 7913): >64 µM; MIC L. plantarum 8014 (L. plantarum 8014): >64 µM; RAW 264.7 cell survival rate (RAW 264.7 cells): 90%
RWWWRR-NH2 [Peptide S6] | 32 µM | 32 µM | >64 µM | 32 µM | 32 µM | 32 µM | 16 µM | 4 µM | 32 µM | 32 µM | 16 µM | 8 µM | >64 µM | >64 µM | 8 µM | 16 µM | 16 µM | >64 µM | >64 µM | >64 µM | MIC L. rhamnosus 1.0385 (L. rhamnosus 1.0385): >64 µM; MIC S. pullorum 7913 (S. pullorum 7913): >64 µM; MIC L. plantarum 8014 (L. plantarum 8014): >64 µM; RAW 264.7 cell survival rate (RAW 264.7 cells): 94%
C[C@H](NC(=O)[C@H](C)NC(=O)[C@H](Cc1c[nH]c2ccccc12)NC(=O)[C@H](Cc1c[nH]c2ccccc12)NC(=O)[C@H](Cc1c[nH]c2ccccc12)NC(=O)[C@H](CCCNC(=N)N)NC(=O)[C@@H]1CSSC[C@H](N)C(=O)N[C@@H](C)C(=O)N[C@@H](CO)C(=O)N[C@@H](Cc2ccc(O)cc2)C(=O)N[C@@H](Cc2ccccc2)C(=O)N1)C(N)=O [Peptide S3] (H-CASYFCRWWWAA-NH2; disulfide 1-6; N-terminus assumed) | >64 µM | >64 µM | >64 µM | >64 µM | >64 µM | >64 µM | >64 µM | >64 µM | >64 µM | >64 µM | >64 µM | >64 µM | >64 µM | >64 µM | >64 µM | >64 µM | >64 µM | >64 µM | >64 µM | >64 µM | antimicrobial activity against the tested microorganisms [3]: failed to show antimicrobial activity; MIC L. rhamnosus 1.0385 (L. rhamnosus 1.0385): >64 µM; MIC S. pullorum 7913 (S. pullorum 7913): >64 µM; MIC L. plantarum 8014 (L. plantarum 8014): >64 µM; RAW 264.7 cell survival rate (RAW 264.7 cells): 84%
